Experimental: This standardized stress study simulates degradation during long-term storage under high, but naturally occurring humidity levels. • 1) Dry binary mixture was prepared by accurately weighing 30 mg of lansoprazole ( Lot # A10344, purchased from ITF Chemical, LTDA, of Polo Petrochimico, Brazil) into a 20 ml head space-gas chromatography vial. A stabilizer was also weighed and added into the vial. The stabilizer tested in the experiments included the polymeric bases: cholestyramine chloride ( Lot# 038167, Dow Chemical), cholestyramine resin in hydroxide form (prepared from cholestyramine chloride as described in Example 1), Eudragit E-PO powder (lot# G030131033, Rohm Gmbh, Germany), and chitosan powder (Mutchler inc., Harrington, N.J.). […] The lansoprazole and stabilizer were mixed by vortexing for 30 seconds. • 2) A second set of dry binary mixtures were prepared in a head space-gas chromatography vial with a glass insert. […] Ten microliters of the diluted samples were analyzed by HPLC to quantitate the remaining lansoprazole using freshly prepared external lansoprazole standard solution. […]

Substance: cholestyramine hydroxide
- Stabilization effect for lansoprazole (in words): significant stabilization effect

Reference: patent US20060013880A1, “Formulation stabilizer for proton pump inhibitors” (priority 2004, published 2006)
